This is an account of results in PubChem BioAssay (NCI).

Some test systems named below: SF-295 CNS; UO-31 renal; ACHN renal; NCI/ADR-RES ovarian; HOP-92 NSCLC; DU-145 prostate; SN12C renal; UACC-62 melanoma; MOLT-4 leukemia; M14 melanoma.
Test in all cases: NCI-60 cell line screen, 48 h

The structures appear in SMILES notation. Where “and” joins values, the source holds several entries; their conditions need not be identical. Identical values can stand only once.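 Method: 48-hour compound exposure of cells in 96-well plates, five concentrations, linear interpolation of endpoints. GI50 = concentration required for 50% inhibition of growth. Definition used: TGI = concentration required for complete inhibition of growth.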

Regarding `O=c1nc2[nH]c3c(-c4n[nH]c(=O)[nH]c4=O)cccc3c2n[nH]1`, the GI50 was greater than 100 µM in the test on SF-295 CNS; greater than 100 µM in the test with UO-31 renal; greater than 100 µM in the test on ACHN renal; greater than 100 µM in the test with NCI/ADR-RES ovarian; 78.1 µM in the test with HOP-92 NSCLC; greater than 100 µM in the test with DU-145 prostate. Further, the GI50 in the test with SN12C renal, in the test with UACC-62 melanoma, in the test on MOLT-4 leukemia and in the test with M14 melanoma was greater than 100 µM in each case. Besides, the TGI in the test on SF-295 CNS, with UO-31 renal, in the test with ACHN renal, in the test with NCI/ADR-RES ovarian, in the test with HOP-92 NSCLC and in the test on DU-145 prostate was greater than 100 µM in each case. In addition, the TGI in the test with SN12C renal, in the test with UACC-62 melanoma, with MOLT-4 leukemia and with M14 melanoma was greater than 100 µM in each case.

As for `CN(C)c1ccc(N=C2C=CC(=C(C#N)C#N)c3ccccc32)cc1`, the TGI was 14.9 µM in the test with SF-295 CNS; 14.2 µM in the test with UO-31 renal; 10.6 µM in the test with ACHN renal; 2.34 µM in the test with NCI/ADR-RES ovarian; 1.06 µM in the test with HOP-92 NSCLC; 3.34 µM with DU-145 prostate. The TGI came to 15.9 µM with SN12C renal, 3.32 µM with UACC-62 melanoma, 8.04 µM in the test on MOLT-4 leukemia and 8.79 µM in the test with M14 melanoma.

As to `CNCc1cccc2c1OCCOCCOCCC(C)S(=O)(=O)c1ccc(cc1)-c1cnc(N)c(n1)C(=O)N2` (configuration not stated), the GI50 with SF-295 CNS is 2.84 µM; in the test on UO-31 renal, 0.623 µM; in the test on ACHN renal, 1.3 µM; in the test with NCI/ADR-RES ovarian, 5.31 µM; with HOP-92 NSCLC, 11.5 µM; in the test with DU-145 prostate, 1.25 µM. Moreover, the GI50 in the test with SN12C renal is 1.24 µM; in the test with UACC-62 melanoma it was 1.67 µM; with MOLT-4 leukemia it was 1.3 µM; in the test with M14 melanoma, 1.27 µM. In addition, the TGI with SF-295 CNS came to 9.07 µM; in the test with UO-31 renal, 2.09 µM; in the test on ACHN renal, 2.82 µM; with NCI/ADR-RES ovarian it was 29.1 µM; in the test with HOP-92 NSCLC it was 25 µM; in the test with DU-145 prostate it was 3.41 µM. Besides, the TGI in the test on SN12C renal was found to be 3.14 µM; with UACC-62 melanoma, 3.3 µM; with MOLT-4 leukemia, 10.3 µM; in the test on M14 melanoma, 3.03 µM.

Regarding `CCN1CCN(c2nc(NNC(=O)c3ccccc3)nc(N3CCN(C(c4ccccc4)c4ccccc4)CC3)n2)CC1`, the GI50 was 4.58 µM in the test with SF-295 CNS; 1.52 µM in the test with UO-31 renal; 2.53 µM in the test with ACHN renal; 3.32 µM in the test with NCI/ADR-RES ovarian; 1.39 µM with HOP-92 NSCLC; 8.11 µM in the test with DU-145 prostate. Also, the GI50 is 2.89 µM in the test on SN12C renal, 1.96 µM in the test with UACC-62 melanoma, 2.01 µM with MOLT-4 leukemia and 1.88 µM in the test with M14 melanoma. Besides, the TGI was found to be 16.3 µM in the test on SF-295 CNS; 3.25 µM in the test on UO-31 renal; 6.56 µM with ACHN renal; 14.3 µM in the test on NCI/ADR-RES ovarian; 3.7 µM with HOP-92 NSCLC; 26.5 µM in the test on DU-145 prostate. For the same compound, the TGI in the test on SN12C renal was 8.97 µM; in the test with UACC-62 melanoma it was 4.29 µM; in the test with MOLT-4 leukemia it was 5.42 µM; in the test on M14 melanoma, 3.56 µM.

Regarding `CC1OC(OC2C(O[C@H]3CC[C@@]4(C)C(=CC[C@H]5[C@@H]6C[C@@H]7O[C@]8(CC[C@@H](C)CO8)[C@@H](C)[C@@H]7[C@@]6(C)CC[C@@H]54)C3)OC(CO)C(OC3OC(CO)C(O)C3O)C2O)C(O)C(O)C1O` (some centres not stated), the GI50 was 0.448 µM with SF-295 CNS; 1.19 µM in the test on NCI/ADR-RES ovarian; 1.22 µM in the test on HOP-92 NSCLC; 0.243 µM in the test on SN12C renal; 0.349 µM in the test with UACC-62 melanoma; 0.187 µM in the test with MOLT-4 leukemia. In addition, the GI50 with M14 melanoma is 0.205 µM. The TGI with SF-295 CNS was 1.53 µM and 1.62 µM; in the test on UO-31 renal it was 1.5 µM; in the test with ACHN renal it was 1.58 µM and 2.12 µM; in the test with NCI/ADR-RES ovarian it was 1.79 µM and 2.44 µM; in the test with HOP-92 NSCLC it was 1.98 µM and 2.46 µM; with DU-145 prostate it was 2.26 µM and 2.15 µM. In addition, the TGI in the test on SN12C renal was 1.22 µM and 0.678 µM; with UACC-62 melanoma, 1.5 µM and 1.07 µM; in the test on MOLT-4 leukemia it was 1.8 µM and 0.412 µM; with M14 melanoma, 1.43 µM and 0.362 µM.

With `C=C(Cn1c2ccccc2c(=O)c2ccccc21)c1ccc(C(=O)Nc2ccccc2N)cc1`, the GI50 with SF-295 CNS was greater than 81.5 µM; in the test on UO-31 renal, 2.64 µM; in the test with ACHN renal, greater than 100 µM; in the test on NCI/ADR-RES ovarian, 2.31 µM; in the test on HOP-92 NSCLC it was 5.87 µM; in the test on DU-145 prostate it was greater than 100 µM. Besides, the GI50 was greater than 100 µM with SN12C renal, greater than 100 µM in the test on UACC-62 melanoma, 0.767 µM with MOLT-4 leukemia and 12.2 µM with M14 melanoma. Moreover, the TGI in the test on SF-295 CNS, with UO-31 renal, in the test on ACHN renal, in the test with NCI/ADR-RES ovarian, in the test with HOP-92 NSCLC and with DU-145 prostate was greater than 100 µM throughout. Further, the TGI in the test on SN12C renal is greater than 100 µM; in the test on UACC-62 melanoma it was greater than 100 µM; in the test with MOLT-4 leukemia, greater than 26 µM; in the test with M14 melanoma, greater than 100 µM.

As to `Oc1ccccc1C=Nc1nc(OCc2ccccc2)nc2[nH]ncc12`, the GI50 is 19.9 µM in the test on SF-295 CNS; 30.5 µM in the test on UO-31 renal; 28 µM in the test on ACHN renal; 28.5 µM with NCI/ADR-RES ovarian; 11.7 µM in the test on HOP-92 NSCLC; 33.9 µM in the test with DU-145 prostate. The GI50 is 17.2 µM with SN12C renal, 13.6 µM with UACC-62 melanoma, 21.5 µM in the test with MOLT-4 leukemia and 21.6 µM in the test with M14 melanoma. The TGI with SF-295 CNS is 39.3 µM; in the test with UO-31 renal it was greater than 100 µM; with ACHN renal it was greater than 100 µM; in the test on NCI/ADR-RES ovarian it was 78.8 µM; in the test with HOP-92 NSCLC it was 43.7 µM; in the test with DU-145 prostate, greater than 100 µM. In addition, the TGI was 40.7 µM in the test with SN12C renal, 28.9 µM in the test on UACC-62 melanoma, greater than 100 µM in the test with MOLT-4 leukemia and 57.7 µM in the test with M14 melanoma.

For the compound `NC(N)=N/N=C/c1c(-c2ccncc2)nc2sc(Cl)cn12`, the GI50 in the test with SF-295 CNS is 13.5 µM; in the test on UO-31 renal, 8.93 µM; in the test on ACHN renal it was 9.28 µM; with NCI/ADR-RES ovarian it was 35.5 µM; with HOP-92 NSCLC, 1.43 µM; in the test on DU-145 prostate, 17.5 µM. For the same compound, the GI50 was 2.59 µM in the test with SN12C renal, 1.88 µM in the test on UACC-62 melanoma, 2.83 µM in the test with MOLT-4 leukemia and 6.54 µM in the test with M14 melanoma. Besides, the TGI was 33.7 µM in the test with SF-295 CNS; greater than 22.7 µM with UO-31 renal; 24.5 µM in the test on ACHN renal; greater than 100 µM in the test on NCI/ADR-RES ovarian; 4.63 µM in the test with HOP-92 NSCLC; 33.3 µM in the test with DU-145 prostate. In addition, the TGI with SN12C renal was found to be 8.58 µM; with UACC-62 melanoma it was 4.91 µM; in the test on MOLT-4 leukemia, 7.26 µM; in the test with M14 melanoma, 14.7 µM.

As to `COC(=O)[C@H](Cc1cn(C)cn1)NC(=O)[C@@H](NC(=O)Nc1cc(C(F)(F)F)cc(C(F)(F)F)c1)C(C)C`, the GI50 in the test on SF-295 CNS was greater than 10 µM; in the test with UO-31 renal, greater than 10 µM; in the test on ACHN renal, greater than 10 µM; in the test on NCI/ADR-RES ovarian, greater than 10 µM; with HOP-92 NSCLC it was 5.48 µM; in the test with DU-145 prostate, greater than 10 µM. The GI50 in the test with SN12C renal was 1.88 µM; in the test on UACC-62 melanoma, 8.58 µM; in the test on MOLT-4 leukemia it was 3.16 µM; in the test with M14 melanoma, 8.62 µM. The TGI with SF-295 CNS, with UO-31 renal, with ACHN renal, in the test on NCI/ADR-RES ovarian, in the test with HOP-92 NSCLC and with DU-145 prostate was greater than 10 µM in each case. The TGI was 3.97 µM in the test on SN12C renal, greater than 10 µM in the test on UACC-62 melanoma, greater than 10 µM with MOLT-4 leukemia and greater than 10 µM with M14 melanoma.

Regarding `COc1ccc(Cc2nc3cc(OC)c(OC)cc3c(=O)[nH]2)cc1`, the GI50 in the test with SF-295 CNS was 5.21 µM; with UO-31 renal it was 4.66 µM; with ACHN renal it was 9.14 µM; with NCI/ADR-RES ovarian, 12.4 µM; in the test on HOP-92 NSCLC it was 21.9 µM; in the test on DU-145 prostate it was 9.38 µM. Besides, the GI50 in the test with SN12C renal was 11.2 µM; in the test with UACC-62 melanoma it was 8.74 µM; in the test on MOLT-4 leukemia, 5.36 µM; in the test on M14 melanoma, 4.13 µM. Also, the TGI in the test on SF-295 CNS was greater than 26.9 µM; in the test on UO-31 renal it was greater than 100 µM; with ACHN renal, greater than 100 µM; with NCI/ADR-RES ovarian it was 59 µM; with HOP-92 NSCLC, greater than 100 µM; in the test with DU-145 prostate it was greater than 67 µM. Also, the TGI is greater than 100 µM in the test on SN12C renal, 34.5 µM in the test on UACC-62 melanoma, greater than 59.6 µM in the test with MOLT-4 leukemia and greater than 41.2 µM with M14 melanoma.

For `Nc1ncnc2c1nc(Cl)n2C1OC(CO)C(O)C1O` (configuration not stated), the TGI in the test on SF-295 CNS is greater than 100 µM; with UO-31 renal it was greater than 100 µM; in the test on ACHN renal it was greater than 100 µM; in the test on NCI/ADR-RES ovarian it was greater than 100 µM; in the test with HOP-92 NSCLC it was greater than 66.2 µM; in the test with DU-145 prostate it was greater than 93.3 µM. The TGI in the test on SN12C renal, with UACC-62 melanoma, in the test with MOLT-4 leukemia and with M14 melanoma was greater than 100 µM in each case.
